Entries after “also recorded” stand apart in the source; their conditions may differ.
How the values were obtained:
Jurkat cells = experiment: Proliferation assay (Cell Titer Glo, 5 days) of wild type and knock-out Jurkat cells; type: cell-based, human; settings: 5-day treatment
Method: sgRNAs (oligonucleotide sequences are indicated above) were cloned into lentiCRISPR-v1 linearized with BsmBI by Gibson Assembly (NEB). sgRNA expressing vector along with lentiviral packaging vectors Delta-VPR and CMV VSVG were transfected into HEK-293T cells using the XTremeGene 9 transfection reagent (Roche). Similarly, for overexpression cell lines, cDNA vectors along with retroviral packaging vectors gag-pol and CMV VSV-G were transfected into HEK-293T cells. Media was changed 24 hours after transfection.

[1] = tested on: Raji lymphoma and KMS-26 multiple myeloma cells; type: cell-based, human; settings: 5-day treatment
Method: […]. Media was changed 24 hours after transfection.

143B cells [2] = experiment: 13C asparagine labelling, GCMS of aspartate and released asparagine; type: cell-based
Method: FIG. 26. […] (A) Proliferation rate was measured after 4 days in DMEM without pyruvate and the indicated media conditions. Untr; Untreated. AKB; 1 mM alpha-ketobutyrate. Asp; 20 mM aspartate. Asn; asparagine, with the indicated concentrations. (B) GCMS measurement of intracellular levels of aspartate after 24 hours from the indicated treatment conditions. Aspartate levels are shown as the log2 of the measured total ion count (TIC). (C) The proliferation rate from FIG. 26A and the aspartate levels from FIG. 26B were graphed against one another to show a correlation between aspartate levels and proliferation rate. Grey triangles are the untreated conditions, blue squares are the AKB conditions, and green dots are the 1 mM ASN conditions. (D) GCMS measurement of intracellular aspartate levels after a 24-hour incubation in untreated media or media treated with 1 mM ^13C asparagine. The bars are split to show the fraction of aspartate that is unlabeled (M+0) and the fraction of aspartate that is labeled with 4 ^13C carbons (M+4). (E) GCMS measurement of unlabeled (M+0) asparagine released into the media (de novo produced asparagine) after a 24-hour incubation in untreated media or media treated with 1 mM ^13C asparagine.
The mechanism by which extracellular asparagine treatment can restore intracellular aspartate levels was also investigated. First, we treated 143B cells with 1 mM asparagine containing four ^13C carbon atoms. […] The small fraction containing labeled aspartate was likely from ^13C aspartate contamination in the ^13C asparagine added to the media. […] One plausible mechanism by which providing the cells with extracellular asparagine would decrease intracellular aspartate consumption is through product inhibition of asparagine synthetase (ASNS) activity. Decreased ASNS activity would decrease aspartate consumption and therefore increased aspartate levels. To test this, we measured the release of unlabeled asparagine in the media of untreated cells or cells treated with 1 mM ^13C asparagine. […]

[3] = tested on: A172, H1299, HeLa, U87, FL5.12, and MEF cell lines; experiment: Proliferation assay of a panel of cell lines treated with respiration inhibitors; type: cell-based; settings: respiration inhibitor alone
Method: (§1) 143B, A172, H1299, HeLa, U87 and MEF cells were cultured in Dulbecco's Modified Eagle's Medium (DMEM) (Gibco) supplemented with 10% fetal bovine serum (FBS) and penicillin-streptomycin. FL5.12 cells were cultured in the same medium and supplemented with 5 μg/mL recombinant mouse IL-3 (R&D Systems). 143B cybrid cell lines (WT Cybrid and CytB) were cultured in DMEM with 10% FBS, penicillin-streptomycin, and 0.1 mg/mL uridine. All cells incubated at 37° C. with 5% CO2.
(§2) Adherent cell lines growing in log phase were trypsinized, counted, and plated onto 6 well dishes (Corning) in 2 mL complete DMEM and incubated overnight. Initial seeding density was 2E4 cells per well for 143B, A172, H1299, HeLa, 143B WT Cybrid, and MEFs and 3E4 cells for 143B CytB and U87 cells. The following day, one plate of cells was counted to determine the initial cell count at the time of treatment. Cells were washed 2 times with 2 mL phosphate buffered saline (PBS) and 4 mL media premixed with the indicated treatments was added. FL5.12 cells, a suspension cell line, were washed 2 times in PBS and added directly to media containing the indicated treatments and 5 μg/mL recombinant mouse IL-3. Proliferation rate assay media was DMEM without pyruvate containing 10% dialyzed FBS, penicillin-streptomycin, and 0.1 mg/mL uridine, unless otherwise noted. For these cell lines at these seeding densities it was determined that for 4 days the cells maintained logarithmic proliferation (data not shown), therefore final cell counts were measured 4 days after treatment. Cells were counted using Cellometer Auto T4 Plus Cell Counter (Nexcelom Bioscience). Proliferation rate was determined using the following formula: Proliferation Rate (Doublings per day)=(log2(Final cell count (day 5)/Initial cell count (day 1))/4 (days)

143B cells [4] = experiment: Amino acid and TCA cycle metabolite GC-MS analysis, 143B cells; type: cell-based; settings: for TCA metabolite, aspartate and glutamate pool sizes: wild-type 143B cells, respiration inhibitor alone
Method: 143B and 143B CytB cells were seeded at 400,000 cells/well in 6 well dishes overnight. The following day, cells were washed 2 times in PBS and media was changed to proliferation assay media with or without the indicated treatments. […] Soluble content was then dried under nitrogen gas. Polar samples were derivatized and measured as detailed in (Lewis). Relative metabolite abundances were determined by integrating ion peak area (Metran) and normalized to norvaline internal extraction standard.

143B CytB cells = experiment: Proliferation assay of respiration-incompetent 143B CytB cybrid cells; type: cell-based; settings: media supplemented with the substance; no pyruvate unless tested, uridine present
Method: FL5.12 cells were cultured in the same medium and supplemented with 5 μg/mL recombinant mouse IL-3 (R&D Systems). […] All cells incubated at 37° C. with 5% CO2.
as §2, with “Initial seeding density was 2E4 cells per well for 143B, A172, H1299, HeLa, 143B WT Cybrid, and MEFs and 3E4 cells for 143B CytB and U87 cells.” left out, “For these cell lines at these seeding densities it was determined that for 4 days the cells maintained logarithmic proliferation (data not shown), therefore final cell counts were measured 4 days after treatment.” left out

143B cells [5] = experiment: Proliferation assay of wild-type 143B cells treated with respiration inhibitors; type: cell-based; settings: for Proliferation of rotenone treated 143B cells: asparagine
Method: as §1, §2

[6] = tested on: A549 lung carcinoma xenografts; experiment: A549 xenograft study with metformin; type: in vivo, nude mice
Method: FIG. 27. In vivo mitochondrial inhibition inhibits cellular proliferation and decreases intracellular growth rate. (A) A549 xenografts in nude mice were treated with varying doses of the mitochondrial inhibitor, metformin, once a day by oral gavage at the indicated concentrations. LCMS measurement of (B) serum and (C) tumor metformin concentration for the indicated metformin treatment conditions. (D) GCMS measurement of intracellular aspartate levels in the tumors following 10 days of the indicated treatment. Aspartate levels are shown as aspartate total ion count (TIC) normalized to leucine TIC.
An in vivo correlation between mitochondrial inhibition and growth inhibition, and further, a correlation between the degree of growth inhibition and intracellular aspartate levels were shown in a xenograft study. A549 lung carcinoma cells were xenografted into nude mice, and the cells were allowed to grow until they formed a tumor 50 mm^3 in volume. When the tumors reached 50 mm^3, the mice were randomly sorted into three groups and treated once a day by oral gavage with vehicle or the mitochondrial inhibitor metformin (500 mg/kg or 1500 mg/kg).

143B cells [7] = experiment: Mitochondrial oxygen consumption (Seahorse XF24), cells treated with respiration inhibitors; type: cell-based; settings: oligomycin with or without FCCP
Method: Oxygen consumption rates were determined on a Seahorse Bioscience Extracellular Flux Analyzer (XF24). Cells were plated in Seahorse Bioscience 24 well plates at 6E4 cells per well in 100 μL complete DMEM, allowed to attach for 1 hour, and 500 μl complete DMEM was added before overnight incubation. The following day cells were washed 2 times in assay media: DMEM without phenol red or pyruvate containing 0.5% dialyzed FBS and 0.1 mg/mL uridine at pH 7.4 and incubated in 500 μL of the same media for the assay.

143B cells [8] = experiment: Measurement of NAD+/NADH (NAD/NADH Glo) in 143B cells with respiration inhibitors; type: cell-based; settings: oligomycin with or without FCCP
Method: NAD^+/NADH measurements were done using a modified version of manufacturer instructions of NAD/NADH Glo Assay (Promega). Cells were plated and treated as for proliferation assays and cell extracts were taken 6 hours after treatment. For extraction, cells were quickly washed 3 times in ice cold PBS, extracted in 100 μL ice cold lysis buffer (1% Dodecyltrimethylammonium bromide (DTAB) in 0.2 N NaOH diluted 1:1 with PBS), and immediately frozen at −80° C. To measure NADH, 20 μL of sample was moved to PCR tubes and incubated at 75° C. for 30 min, where the basic conditions will selectively degrade NAD^+. To measure NAD^+, 20 μL of the samples was moved to PCR tubes containing 20 μL lysis buffer and 20 μL 0.4 N HCl and incubated at 60° C. for 15 min, where acidic conditions will degrade NADH. Following incubations, samples were allowed to equilibrate to room temperature and then quenched by neutralizing with 20 μL 0.25 M Tris in 0.2 N HCl (NADH) or 20 μL 0.5 M Tris base (NAD^+). Manufacturer instructions were followed thereafter to measure NAD^+/NADH.

[9] = 1 mM 13C asparagine, 24-hour incubation
[10] = metformin 500 mg/kg or 1500 mg/kg once a day by oral gavage

Compound: C/C=C(\C)[C@H](O)[C@H](C)/C=C(C)/C=C/C/C(C)=C/Cc1nc(OC)c(OC)c(O)c1C [piericidin, reference compound]
- Sensitivity of GOT1-null versus wild-type cells to other ETC inhibitors (Jurkat cells): GOT1-null cells die; also recorded: substantially more sensitive
- Viability of GOT1-null KMS-26 and Raji cells with other mitochondrial toxins [1]: GOT1-null KMS-26 and Raji cells die

Compound: NC(=O)C[C@H](N)C(=O)O [^13C asparagine]
- Intracellular aspartate levels (143B cells [2]; [9]): did increase intracellular aspartate levels
- Labelling of intracellular aspartate pool (143B cells [2]; [9]): nearly all of the intracellular aspartate pool was unlabeled (M+0)

Compound: antimycin [reference compound]
- Proliferation of cell line panel [3]: blocked proliferation
- TCA metabolite, aspartate and glutamate pool sizes (143B cells [4]): decreases in TCA metabolites and aspartate, but not glutamate
- Sensitivity of GOT1-null versus wild-type cells to other ETC inhibitors (Jurkat cells): GOT1-null cells die; also recorded: substantially more sensitive
- Viability of GOT1-null KMS-26 and Raji cells with other mitochondrial toxins [1]: GOT1-null KMS-26 and Raji cells die

Compound: COC(=O)CCC(=O)C(=O)OC [dimethyl α-ketoglutarate, reference compound]
- Proliferation rate of 143B CytB cells (143B CytB cells): able to restore some proliferation to 143B CytB cells, albeit at a much lower capacity than aspartate

Compound: Nc1nc2nc[nH]c2c(=O)[nH]1 [guanine, reference compound]
- Proliferation rate of 143B CytB cells (143B CytB cells): somewhat toxic

Compound: C=C(C)[C@H]1Cc2c(ccc3c2O[C@@H]2COc4cc(OC)c(OC)cc4[C@@H]2C3=O)O1 [rotenone, reference compound]
- Proliferation of cell line panel [3]: blocked proliferation
- TCA metabolite, aspartate and glutamate pool sizes (143B cells [4]): decreases in TCA metabolites and aspartate, but not glutamate

Compound: O=c1[nH]cnc2nc[nH]c12 [hypoxanthine, reference compound]
- Proliferation rate of 143B CytB cells (143B CytB cells): no effect on proliferation

Compound: NC(=O)C[C@H](N)C(=O)O [asparagine]
- Proliferation of rotenone treated 143B cells (143B cells [5]; high doses of rotenone): not able to restore proliferation
- Proliferation of rotenone treated 143B cells (143B cells [5]; low doses of rotenone): sufficient to restore proliferation; also recorded: restores intracellular aspartate levels and proliferation in rotenone treated cells
- Restoration of intracellular aspartate compared to AKB (143B cells [4]; rotenone treated 143B cells, 1 mM asparagine): incomplete compared to AKB
- Intracellular aspartate levels (143B cells [4]; rotenone treated 143B cells, 24 hours, AKB or 1 mM asparagine): increased intracellular aspartate; also recorded: restores intracellular aspartate levels and proliferation in rotenone treated cells
- Release of unlabeled (de novo produced) asparagine into the media (143B cells [2]; 1 mM 13C asparagine versus untreated, 24 hours): produce less asparagine

Compound: CN(C)C(=N)N=C(N)N [metformin]
- Sensitivity of GOT1-null versus wild-type cells to other ETC inhibitors (Jurkat cells): substantially more sensitive; also recorded: GOT1-null cells die
- Normalized intracellular aspartate levels in tumors ([6]; 10 days of treatment, aspartate TIC normalized to leucine TIC): decrease in a dose-dependent manner
- Tumor concentration of metformin ([6]; escalating doses of metformin): increased tumor concentration of metformin
- Serum concentrations of metformin [6, 10]: at concentrations that would be therapeutically relevant and tolerable in humans
- Tumor growth [6, 10]: dose dependently inhibited tumor growth

Compound: N#CC(C#N)=NNc1ccc(OC(F)(F)F)cc1 [FCCP, carbonyl cyanide-4-(trifluoromethoxy)phenylhydrazone, reference compound]
- Proliferation rate of oligomycin treated 143B cells (143B cells [5]; oligomycin with or without FCCP): increased proliferation of oligomycin treated cells
- Oxygen consumption of oligomycin treated cells (143B cells [7]): increased
- NAD+/NADH ratio of oligomycin treated 143B cells (143B cells [8]): increased

Compound: CC[C@H]1/C=C/C=C/C[C@@H](C)[C@H](O)[C@@](C)(O)C(=O)[C@@H](C)[C@H](O)[C@@H](C)C(=O)[C@@H](C)[C@H](O)[C@@H](C)/C=C/C(=O)O[C@@H]2[C@H](C)[C@H](CC1)O[C@]1(CC[C@H](C)[C@H](C[C@@H](C)O)O1)[C@H]2C [oligomycin, reference compound]
- Proliferation of cell line panel [3]: blocked proliferation
- TCA metabolite, aspartate and glutamate pool sizes (143B cells [4]): decreases in TCA metabolites and aspartate, but not glutamate

— patent US10123985B2, “Therapeutic strategies for treating mitochondrial disorders” (Whitehead Institute for Biomedical Research, priority 2015, dated 2018)
